# Legend:
# [1] = test system: rats; assay: Early ischemic myocardial arrhythmias after coronary artery ligation; type: in vivo; conditions: 0.5 mg/kg i.v.; 30 min after coronary occlusion
# Experimental: White random-bred male rats weighing 200 g were given light ether anesthesia and were then immobilized and artificially ventilated. The descending branch of the left coronary artery of each rat was ligated. Immediately following ligation, a test or control substance was administered to each rat through the catheterized femoral vein, and an ECG recording was initiated (standard lead II) and maintained for the next 30 minutes.
# GE and VT served as test substances and were administered to animals in the respective test groups at doses of 0.1, 1.0, and 10.0 mg/kg. The β-adrenergic blocking agent, propranolol (Obzidan, Germed, Germany), served as the positive control substance and was administered intravenously to each animal in the positive control group at a dose of 0.5 mg/kg. Physiological saline served as the negative control substance and was administered intravenously to animals in the negative control group. Each dose of each test or control substance was tested separately on a group of nine animals.
# The following parameters were evaluated based upon the ECG recordings: (i) the number of ventricular extrasystoles that occurred within a 30-minute observation period following coronary occlusion; (ii) the overall cumulative duration of ventricular tachycardias (i.e., the summation of duration of individual paroxysmal ventricular rhythm disturbances in seconds) occurring within the 30-minute observation period; and (iii) the overall duration (in seconds) of the ventricular fibrillations occurring within the 30-minute observation period. The data were processed electronically and statistical comparisons were made between the values obtained from the animals in the experimental test groups and those in the different respective control groups.
# [2] = test system: rats; assay: CPK activity in blood serum 1 hour after coronary occlusion; type: in vivo; conditions: dose printed --; i.v.; 1 hour after coronary occlusion
# Experimental: White random-bred male rats weighing approximately 200 g were anesthetized using a light ether administration and then immobilized and artificially ventilated. […] Immediately after ligation, a test substance, positive, control substance, or negative control substance (described below) was administered to a rat through a catheterized femoral vein. Each dose of each test substance or positive or negative control substance was administered to an experimental or control group of 9 test rats. In this study, GE and VT served as test substances, propranolol served as the positive control substance, and physiological saline served as the negative control substance. Each test rat in an experimental group was given a dose of either 0.1, 1.0, or 10.0 milligram GE per kilogram of body weight of the subject animal (mg/kg) or 0.1, 1.0, or 10.0 milligram VT per kilogram of body weight of the animal. Each animal of the positive control group received an intravenous dose of 0.5 mg of β-adrenergic blocking agent, propranolol (Obzidan, Germed, Germany) per kilogram of body weight. Propranolol is commonly used to manage cardiac arrhythmia and there is some evidence that the agent may reduce the extent of ischemic damage to the heart. […] Each animal of the negative control group received physiological saline.
# One hour after initiation of the coronary artery occlusion, each test animal was sacrificed, its blood was collected, and the CPK activity in its blood serum was measured. CPK activity was determined by using a standard biochemical method, such as that commercially available from the Lachema Company (Czechia) in its test kit, and by following the manufacturer's process instructions included in the package insert.
# As a supplementary control for the possible trauma caused by the surgical procedure, a group of 9 sham-operated rats was included in the study. These test animals were subjected to chest dissection, but not to coronary artery occlusion. These "sham-operated" animals were not treated with any test or control substances and were euthanized 1 hour after surgery. Their blood was then collected for determination of CPK activity.
structure (smiles),measurement,setting,value
"CC(C)NCC(O)COc1cccc2ccccc12 (stereo not drawn) [Propranolol, propranolol, reference compound]",Number of Ventricular Extrasystoles,[1],61.22
same,Overall Duration of Ventricular Tachycardia,[1],56.74 s
same,CPK Activity in blood serum,[2],0.170 (±0.011) mcCat/L

# Reference: patent US5972894A, “Peptides having potassium channel opener activity” (Cytran, Inc., priority 1997, dated 1999)
